Source: patent publication US7183061B2, “Method of expressing Heliothis ecdysone receptor fusion protein” (Syngenta Limited, priority 1996, dated 2007)

Key:
Type in all cases: cell-based, Heliothis virescens
HEcR with αRXR = assay: Native HEcR reporter gene expression in HEK293 cells co-transfected with αRXR; settings: αRXR co-transfected along with effector and reporter
Text: A third effector construct was made with the 5′ end sequences of pSK16.1 by PCR. The PCR approach involved PCR amplifying the 5′ end sequences using a 5′ oligonucleotide containing a HindIII restriction cloning site, the Kozak consensus sequence followed by nucleotide sequence encoding for a Methionine start and two Arginines to be added to the 5′ end of the amplified fragment: (16H3K 5′ […] 3′; SEQ ID NO: 28), the 3′ oligonucleotide used was HecrNdeI. The resulting fragment was restriction enzyme digested, gel purified and subcloned with an NdeI/NotI 19R fragment into pcDNA3 NdeI/NotI vector. The plasmid was named pcDNA3H3 KHEcR.
The reporter plasmid to be co-transfected with the expression vector contained 4 copies of the Hsp27 ecdysone response element (Riddihough and Pelham, 1987) fused to β-globin promoter and the β-Galactosidase gene. The tandem repeats of the ecdysone response element were synthesised as two complementary oligonucleotides which when annealed produced a double stranded DNA molecule flanked by an SpeI site at the 5′ end and a ClaI site at the 3′ end:
The resulting 135 bp DNA fragment was ligated to the vector pSWBGAL SpeI/ClaI resulting in pSWREcR4 (FIG. 8). The co-transfection of the two plasmids should result in B-galactosidase activity in the presence of ligand. […]

[1] = target: T1, glucocorticoid/Heliothis ecdysone chimeric receptor (UniProt O18473+P04150); assay: HEK293 cells co-transfected with pcDNA3GRHEcR and pSWGRE4 (β-galactosidase reporter); set-up: expressed in transfected cells; host or cells: HEK293 (A8); settings: co-transformed HEK293 cells (FIG. 28)
T1 sequence (P04150+O18473 with tags, fused parts or gaps): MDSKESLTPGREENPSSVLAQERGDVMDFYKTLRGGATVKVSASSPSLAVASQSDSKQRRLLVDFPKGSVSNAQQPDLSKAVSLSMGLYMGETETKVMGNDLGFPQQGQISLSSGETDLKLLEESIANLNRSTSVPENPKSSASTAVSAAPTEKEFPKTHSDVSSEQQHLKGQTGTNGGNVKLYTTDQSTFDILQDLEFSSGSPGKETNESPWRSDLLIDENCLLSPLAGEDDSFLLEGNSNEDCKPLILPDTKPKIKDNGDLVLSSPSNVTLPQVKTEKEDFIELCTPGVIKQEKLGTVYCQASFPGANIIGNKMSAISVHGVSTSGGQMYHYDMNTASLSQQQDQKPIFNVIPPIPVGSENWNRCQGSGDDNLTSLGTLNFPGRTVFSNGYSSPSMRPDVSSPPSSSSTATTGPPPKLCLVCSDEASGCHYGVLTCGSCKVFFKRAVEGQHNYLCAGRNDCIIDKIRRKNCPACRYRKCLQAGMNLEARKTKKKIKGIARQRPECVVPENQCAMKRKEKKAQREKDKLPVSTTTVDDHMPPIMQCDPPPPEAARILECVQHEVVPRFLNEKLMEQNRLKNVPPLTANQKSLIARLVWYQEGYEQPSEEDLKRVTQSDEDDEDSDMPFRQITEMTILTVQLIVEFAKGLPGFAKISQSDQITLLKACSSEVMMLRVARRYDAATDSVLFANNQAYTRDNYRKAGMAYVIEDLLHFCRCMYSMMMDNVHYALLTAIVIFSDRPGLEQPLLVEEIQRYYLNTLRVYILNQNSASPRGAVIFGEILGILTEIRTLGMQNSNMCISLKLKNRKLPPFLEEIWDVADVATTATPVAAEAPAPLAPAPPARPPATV
Procedure: Transfections of mammalian cell lines (CHO-K1 Chinese hamster ovary) ATCC number CCL61 or cos-1 (Monkey cell line) were performed using either calcium phosphate precipitation (Gorman, Chapter 6 of “DNA cloning: a practical approach. Vol 2 D. M. Glover ed/.(1985) IRL Press, Oxford) or using LipofectAMINE (Gibco BRL Cat. No. 18324–012, following manufacturer's instructions). […] 293 cells were transfected using analogous methods.
The mammalian expression vector used in this experiment was pcDNA3 (Invitrogen). The GRHEcR 2.7 kb BamHI DNA fragment (isolated from pMF6GRHEcR) was introduced into the pcDNA3 BamHI vector. The recombinants were oriented by restriction enzyme mapping. The DNA sequence of the junctions was determined to ensure correct orientation and insertion (pcDNA3GRHEcR, FIG. 25).
The reporter plasmid for mammalian cell system was produced by taking pSWBGAL plasmid and replacing the CRESW SpeI/ClaI fragment for a synthetic 105 bp DNA fragment containing 4 copies of the glucocorticoid response element (GRE) and flanked by SpeI at the 5′ end and AflII at the 3′ end.
The two oligonucleotides were purified annealed and ligated to pSWBGAL SpeI/AflII to produce pSWGRE4 (FIG. 26).

[2] = target: T1, glucocorticoid/Heliothis ecdysone chimeric receptor; assay: Maize protoplast GUS reporter assay with pMF6GRHEcR and p221.9GRE6; set-up: expressed in transfected cells; host or cells: maize protoplasts (A5); tobacco mesophyll protoplasts (A6); CHO-K1 (A7); HEK293 (A8); stably transformed tobacco plants (A9); settings: maize protoplasts
Procedure: Protoplasts were isolated from a maize suspension culture derived from BE70×A188 embryogenic callus material, which was maintained by subculturing twice weekly in MS0.5mod. (MS medium supplemented with 3% sucrose, 690 mg/l proline, 1 g/l myo-inositol, 0.2 g/l casein acid hydrolysate, 0.5 mg/l 2,4-D, pH 5.6). Cells from suspensions two days post subculture were digested in enzyme mixture (2.0% Cellulase RS, 0.2% Pectolyase Y23, 0.5 M Mannitol, 5 mM CaCl2.2H2O, 0.5% MES, pH 5.6, ˜660 mmol/kg) using ˜10 ml/g cells, incubating at 25° C., dim light, rotating gently for ˜2 hours. The digestion mixture was sieved sequentially through 250 μm and 38 μm sieves, and the filtrate centrifuged at 700 rpm for 3.5 minutes, discarding the supernatant. The protoplasts were resuspended in wash buffer (0.358 M KCl, 1.0 mM NH4NO3, 5.0 mM CaCl2.2H2O, 0.5 mM KH2PO4, pH 4.8, ˜670 mmol/kg) and pelleted as before. This washing step was repeated. The pellet was resuspended in wash buffer and the protoplasts were counted. Transformation was achieved using a Polyethylene glycol method based on Negrutiu et al. Protoplasts were resuspended at 2×10^6/ml in MaMg medium (0.4 M Mannitol, 15 mM MgCl2, 0.1% MES, pH 5.6, ˜450 mmol/kg) aliquotting 0.5 ml/treatment (i.e. 1×10^6 protoplasts/treatment). Samples were heat shocked at 45° C. for 5 minutes then cooled to room temperature. […]

SMILES	induction of reporter activity compared to the untreated cells (HEcR with αRXR) [fold]	chemical induced reporter gene activity [1]	response of reporter ([2]; 100 μM)	chemical induced reporter gene activity ([2]; concentration not printed (FIG. 20))
CC(C)CC[C@@H](O)[C@](C)(O)[C@H]1CC[C@@]2(O)C3=CC(=O)[C@]4(O)C[C@@H](O)[C@@H](O)C[C@]4(C)[C@H]3[C@H](O)C[C@]12C [Muristerone A]	9	induction of reporter activity was observed	no response	–
CCc1ccc(C(=O)NN(C(=O)c2cc(C)cc(C)c2)C(C)(C)C)cc1 [RH5992, 3,5-dimethylbenzoic acid 1-1(1,1-dimethylethyl)-2(4-ethylbenzoyl)hydrazide]	9	significant chemical induced reporter gene activity	–	significant chemical induced reporter gene activity
